The experiment is filed under the species Gallus gallus. Kind of experiment: Tested for inhibition of agglutination of chicken erythrocytes in vitro. The experiment is classed as functional.

As usually defined, the Ki is the equilibrium dissociation constant of an inhibitor or competing ligand from its target. A lower Ki goes with higher affinity.

Molecule `C=CC(=O)NCCSCCCC1(C(=O)O)CC(O)C(NC(C)=O)C(C(O)C(O)CO)O1` (stereo unspecified) registered a Ki of 400 nM.
